From paper PMC7155171, “Probing the Open Global Health Chemical Diversity Library for Multistage-Active Starting Points for Next-Generation Antimalarials” (ACS Infectious Diseases, 2020)
Read-outs that look alike come from different tables or passages of the source.

Key:
[1] = tested on: P. falciparum (NF54) stage V gametocytes; test: Stage V gametocyte viability assay (MitoTracker Red CMXRos high content imaging); format: cell-based, Plasmodium falciparum; details: Plasmodium falciparum, NF54, 72 h; for inhibition at 2 µM: read-out: Stg V Gam primary screen: Inhibition % (2uM) (n=2)
[2] = tested on: HepG2-A16-CD81 hepatocytes; test: cells; design: Uninfected hepatocyte viability, CellTiter-Glo luminescence; details: sheet CDD Export 1;, cytotoxicity primary screen, read-out: Table S5. Liver stage reconfirmation data / HepG2 Cytotoxicity primary screen (2uM): % Inhibition
Experimental: For the screen, 5 μL of HepG2-A16-CD81 hepatocytes containing 3 × 10^3 cells was seeded into 1536-well plates, which had been prespotted with 10 nL of library compound (2 μM final assay concentration (Figure 1)) and incubated overnight. For PbLuc infected plates, approximately 750 purified sporozoites in 5 μL of screening media were added to each well and incubated for 48 h before measuring luciferase activity. Compounds were tested for toxicity in parallel (see Methods) by measuring uninfected hepatocyte viability using CellTiter-Glo. […] This hit rate was slightly lower than expected for an agnostic library, which prompted us to rescreen the entire library at 10 μM. The PbLuc and cytotoxicity assay plates for this second replicate would be stamped in-house with 50 nL of library compound per well, using the same compound plates as the sexual stage screen described below. All the assay parameters were kept similar, except the change in concentration and shortening the time the compounds spent in each well prior to infection. […] All potential false positive effectors from the CellTiter-Glo assay were filtered from subsequent studies (Table S1). Naturally, there were more primary hits from the 10 μM than the 2 μM screen due to the higher testing concentration. For reconfirmation, we sourced all the hits that inhibited PbLuc at >70% and mean HepG2 at <50% in the 2 μM screen or PbLuc at >60% in both 2 and 10 μM screens and mean HepG2 at <50%. The resulting compounds were acquired as DMSO stocks and retested in the dose response (50–2.82 × 10^–4 μM or 25–141.13 × 10^–6 μM) against PbLuc and uninfected hepatocytes (Table S5). […] The majority of these compounds were weak inhibitors, although 18 submicromolar hits were found (Table S5).

[3] = tested on: P. falciparum Dd2 (PfLuc) line expressing firefly luciferase, asexual blood stage; test: microbe, parasite or virus in culture; format: cell-based, Plasmodium falciparum; details: Plasmodium falciparum
[4] = tested on: P. falciparum Dd2; test: SYBR green I asexual blood stage proliferation assay (96 h); format: cell-based, Plasmodium falciparum; details: Plasmodium falciparum, DD2, 11-pt dose response, 96hr
[5] = tested on: P. falciparum Dd2 (PfLuc) line expressing firefly luciferase, asexual blood stage; test: microbe, parasite or virus in culture; design: species or system P. falciparum Dd2-luciferase in human red blood cells; PfLuc Dd2 asexual blood stage luciferase viability, BrightGlo luminescence, 96 h; details: Plasmodium falciparum, DD2, Erythrocyte; 8-point, 96 h, DMSO stocks; read-out: CDD P. falciparum Luciferase ABS 8-pt Reconfirmation Dose Response (96hr): IC50
Experimental: A transgenic line of Plasmodium falciparum (Dd2) constitutively expressing firefly luciferase was used for primary and reconfirmation screening. Cultures were maintained in complete media at 5% hematocrit (Human Whole Blood O+) and incubated at 37 °C in a low oxygen environment (3% O2, 5% CO2, and 92% N2). Culture health and parasitemia were tracked by Giemsa staining and bright field microscopy. Prior to dispensing parasites for primary screening, 20 nL of test compounds and 10 nL of control compounds (artemisinin and DMSO) were seeded per well using an Echo 550 acoustic dispenser (Labcyte) for final assay concentrations of 5 and 10 μM, respectively. When parasite cultures reached 3% to 8% parasitemia, as determined by a blood smear, infected blood was centrifuged at 800g for 5 min. […] From this blood mixture, 8 μL was dispensed per well in 1536-well, white, solid-bottom plates (789173-F, Greiner) using a MultiFlo FX Multi-Mode dispenser (BioTek). Plates were covered with a porous metal lid and incubated at 37 °C inside large plastic Ziploc bags filled with a blood gas mixture (3% O2, 5% CO2, and 92% N2) for 96 h. To prevent evaporation, a clean tray of water was included within each bag. Following incubation, BrightGlo was prepared by manufacturer specifications and dispensed at 2 μL per well using the MultiFlo dispenser. Plates were left for 20 min before being read with the ViewLux uHTS microplate imager (PerkinElmer) with a 90 s exposure time at the High Sensitivity Luminescence setting. Raw data were processed using GeneData (v12.0.5), whereby activity was normalized to negative minus positive controls. The correction of Runwise Pattern (Multiplicative) was applied, and compounds were considered hits when activity was reduced by ≥70%. […] Also, plates tested in 11-point dose response format were incubated at both 48 a The primary assay was run at a compound concentration of 5 μM. Briefly, 8 μL of an ABS parasite mixture (∼10,000 parasites) was dispensed into 1536-well plates previously spotted with 64,811 GHCDL compounds (the remaining 3642 library compounds arrived later and were evaluated separately). After a 96 h incubation, 2 μL of luciferin (BrightGlo) was added, and the luminescent signal was measured. Bioluminescence was normalized to DMSO (negative control) and artemisinin-treated (positive control) wells for the single point screens. For this primary screen, assay fidelity was determined on a per plate basis using both the Z′-factor and the potency variance of the positive (artemisinin) and negative (DMSO) controls. The mean Z′ value was 0.60 (range of 0.43–0.75), with only one plate falling below our ideal 0.5 threshold (Figure S1).

[6] = read-out: Stg V Gam dose response IC50 (µM) (n=3), 10-point dose response, n=3, 72 h
[7] = DD2, read-out: CDD P. falciparum Luciferase ABS 11-pt Reconfirmation Dose Response (48hr): IC50 (μM), 11-pt dose response, 48hr
[8] = DD2, 8-pt dose response, 96hr, read-out: CDD P. falciparum Luciferase ABS 8-pt Reconfirmation Dose Response (96hr): IC50
[9] = DD2, 11-pt dose response, 48hr, read-out: CDD P. falciparum Luciferase ABS 11-pt Reconfirmation Dose Response (48hr): Maximum inhibition (%)
[10] = DD2, 11-pt dose response, 96hr, read-out: CDD P. falciparum Luciferase ABS 11-pt Reconfirmation Dose Response (96hr): IC50
[11] = DD2, 11-pt dose response, 96hr, read-out: CDD P. falciparum Luciferase ABS 11-pt Reconfirmation Dose Response (96hr): Maximum inhibition (%)
[12] = Sybr Green I, read-out: CDD P. falciparum Sybr Green I ABS 11-pt Reconfirmation Dose Response (96hr): IC50
[13] = DD2, 8-pt dose response, 96hr, read-out: P. falciparum Luciferase ABS 8-pt Reconfirmation Dose Response (96hr): IC50
[14] = DD2, 8-pt dose response, 96hr, read-out: P. falciparum Luciferase ABS 8-pt Reconfirmation Dose Response (96hr): Maximum inhibition (%)
[15] = DD2, 8-pt dose response, 96hr, read-out: CDD P. falciparum Luciferase ABS 8-pt Reconfirmation Dose Response (96hr): Maximum inhibition (%)
[16] = Sybr Green I, read-out: CDD P. falciparum Sybr Green I ABS 11-pt Reconfirmation Dose Response (96hr): Maximum inhibition (%)

COCCCNC1N=C(n2nc(C)cc2C)Nc2sc3c(c21)CCCC3 (stereo not shown) [DDD01037467, COCCCNC1N=C(NC2=C1C1=C(CCCC1)S2)N1N=C(C)C=C1C]
IC50 ([1]; read-out: GAM V IC50, stage V gametocytes, 72 h): 0.34 µM
IC50 [1, 6]: 0.344 µM
inhibition at 2 µM [2]: 2.66%

CCNc1ccnc(CN2CCCC2C(=O)Nc2nccs2)c1 (stereo not shown) [DDD01068941]
IC50 [3, 7]: 0.73 µM
IC50 [3, 8]: 0.48 µM
Emax [3, 9]: 92.3%
IC50 [3, 10]: 0.407 µM
Emax [3, 11]: 99.6%
IC50 [4, 12]: 1650 nM
inhibition at 2 µM [2]: 1.3%

Cc1cn2c(n1)C(CNCC1=Cc3ccccc3OC1)CCC2 (stereo not shown) [DDD01073292, CC1=CN2CCCC(CNCC3=CC4=CC=CC=C4OC3)C2=N1]
IC50 ([3]; DD2, read-out: P. falciparum Luciferase ABS 11-pt Reconfirmation Dose Response (48hr): IC50, 11-pt dose response, 48hr): 4.19 µM
IC50 [3, 13]: 1.65 µM
Emax [3, 14]: 93%
IC50 ([3]; DD2, 11-pt dose response, 96hr, read-out: P. falciparum Luciferase ABS 11-pt Reconfirmation Dose Response (96hr): IC50): 1.84 µM
Emax ([3]; DD2, 11-pt dose response, 96hr, read-out: P. falciparum Luciferase ABS 11-pt Reconfirmation Dose Response (96hr): Maximum inhibition (%)): 99.3%
IC50 [1, 6]: 1.31 µM
inhibition at 2 µM [1]: 66%
IC50 ([4]; read-out: P. falciparum Sybr Green I ABS 11-pt Reconfirmation Dose Response (96hr): IC50): 2320 nM
Emax ([4]; read-out: P. falciparum Sybr Green I ABS 11-pt Reconfirmation Dose Response (96hr): Maximum inhibition (%)): 83.8%
inhibition at 2 µM [2]: -0.92%

COc1cccc(CNc2cc(C)nc(-c3ccncc3)n2)c1OC [DDD01073393]
IC50 [3, 7]: 4.09 µM
IC50 [3, 8]: 0.56 µM
Emax [3, 15]: 94.5%
Emax [3, 9]: 80%
IC50 [3, 10]: 0.0383 µM
Emax [3, 11]: 98.2%
IC50 [4, 12]: 589 nM
Emax [4, 16]: 75.8%
inhibition at 2 µM [2]: -4.44%

O=C(CN1CCCC(c2ccn[nH]2)C1)Nc1nc2c(s1)CCCC2 (stereo not shown) [DDD01079490]
IC50 [3, 7]: 0.452 µM
IC50 [3, 8]: 0.28 µM
Emax [3, 15]: 89.3%
Emax [3, 9]: 82.4%
IC50 [3, 10]: 0.266 µM
Emax [3, 11]: 97%
IC50 [4, 12]: 810 nM
Emax [4, 16]: 69.6%
inhibition at 2 µM [2]: 7.13%

c1cc(-c2n[nH]cc2-c2ccnc(N3CCCC3)n2)ccn1 [DDD01235828]
IC50 [3, 7]: > 4.16 µM
Emax [3, 15]: 91%
Emax [3, 9]: 53.9%
IC50 [3, 10]: 0.167 µM
Emax [3, 11]: 92%
IC50 ([3]; 96 h incubation, Dd2 luciferase, read-out: 96 hour Pfluc IC50): 0.17 µM
IC50 [5]: 61.8 nM
IC50 [4, 12]: 37 nM
Emax [4, 16]: 79.4%

CC1(c2ccccc2)CCCN(Cc2cncn2C2CCCC2)C1 (stereo not shown) [DDD01246491, CC1(CCCN(CC2=CN=CN2C2CCCC2)C1)C1=CC=CC=C1]
IC50 [1, 6]: 2.65 µM
inhibition at 2 µM [1]: 55.4%
inhibition at 2 µM [2]: -6.73%

Fc1ccc(N2CCCN(c3ccc(Cn4ccnc4)cn3)CC2)cc1 [DDD01247581]
inhibition at 2 µM [2]: 3.83%

COc1ccc(-c2cc(CNc3ncnc4c3CCNCC4)no2)cc1 [DDD01252258]
inhibition at 2 µM [2]: 4.02%

CC(Nc1ncnc2c1CCNC2)c1ccc2c(c1)CCCC2 (stereo not shown) [DDD01252547]
inhibition at 2 µM [2]: 0.573%

Cc1csc2ncnc(N3CCC(Cn4cc(C(C)(C)N)nn4)CC3)c12 [DDD01257281]
inhibition at 2 µM [2]: 4.6%

Nc1nc(CCC(=O)N2CCOC(CC3CCCCC3)C2)cs1 (stereo not shown) [DDD01258215]
inhibition at 2 µM [2]: -10.6%

CC(=O)c1ccc(N2CCC(CO)(CCOc3ccccc3)CC2)nc1 [DDD01258288]
inhibition at 2 µM [2]: 17.5%

Cc1nc(N2CC[C@@H](NC(=O)c3cnccn3)[C@H](O)C2)c2ccsc2n1 [DDD01258299]
inhibition at 2 µM [2]: -14.6%

COc1cc(CNCc2ccnc(N3CCCCC3)c2)cc(OC)c1 [DDD01297270]
inhibition at 2 µM [2]: -2.79%

CCc1cccc(N2CCC(NC(=O)c3ccco3)CC2)c1 [DDD01299802]
inhibition at 2 µM [2]: 4.14%

COc1cccc(CN2CCN(c3ccc4nncn4n3)C(C)C2)c1 (stereo not shown) [DDD01301691]
inhibition at 2 µM [2]: -7.2%

COc1c(C)cnc(CN2CCC(N(C)C(C)C(N)=O)CC2)c1C (stereo not shown) [DDD01301801]
IC50 [3, 13]: 1.63 µM
Emax [3, 14]: 76.5%
inhibition at 2 µM [2]: 1.63%

Cc1noc(NC(=O)c2ccc(Br)s2)n1 [DDD01302055]
inhibition at 2 µM [2]: 5.11%

Cn1cc(NS(=O)(=O)c2ccc(OC(F)(F)F)cc2)ccc1=O [DDD01303273]
inhibition at 2 µM [2]: -4.65%

CC(C)N(CC(N)=O)Cc1csc(COc2ccc(F)cc2)n1 [DDD01303358]
inhibition at 2 µM [2]: 6.02%

Cc1ccoc1C(=O)NC1CCN(Cc2csc3c(F)cccc23)CC1 [DDD01304087]
inhibition at 2 µM [2]: -2.96%
